Earlier results on one compound are cited in US20260263463A1, “FORMULATIONS OF DANICOPAN AND METHODS OF USE THEREOF” (Alexion Pharmaceuticals, Inc., priority 2023, published 2026).

The conditions of the series: doses of up to 1,600 mg; cited from earlier work.

For `CC(=O)c1nn(CC(=O)N2C[C@H](F)C[C@H]2C(=O)Nc2cccc(Br)n2)c2ccc(-c3cnc(C)nc3)cc12` [Danicopan, danicopan], the adverse effects entry is on record as “no adverse effects”.
